Test results taken from patent publication US20140080810A1 (Exelixis, Inc., priority 2010, published 2014).

Assays:
[1] = molecular target: PI3Kα (Homo sapiens, UniProt P42336); assay: PI3K Biochemical Assay (ATP consumed, luciferase-luciferin chemiluminescence); conditions: 1 μM ATP, 10 μM PIP2; last bin: >= 2,000 nM or not active under the conditions the assay was run; read-out: IC50 for PI3Kα in this assay
Procedure: PI3Kα activity is measured as the percent of ATP consumed following the kinase reaction using luciferase-luciferin-coupled chemiluminescence. Reactions were conducted in 384-well white, medium binding microtiter plates (Greiner). Kinase reactions were initiated by combining test compounds, ATP, substrate (PIP2), and kinase in a 20 μL volume in a buffer solution. The standard PI3Kalpha assay buffer is composed 50 mM Tris, pH 7.5, 1 mM EGTA, 10 mM MgCl2, 1 mM DTT and 0.03% CHAPS. The standard assay concentrations for enzyme, ATP, and substrate are 1.5 nM, 1 μM, and 10 μM, respectively. The reaction mixture was incubated at ambient temperature for approximately 2 h. Following the kinase reaction, a 10 μL aliquot of luciferase-luciferin mix (Promega Kinase-Glo) was added and the chemiluminescence signal measured using a Victor2 plate reader (Perkin Elmer). Total ATP consumption was limited to 40-60% and IC50 values of control compounds correlate well with literature references. Substituting PI3Kα with PI3Kβ, PI3Kγ, or PI3Kδ, the inhibitory activity of the compounds for the other isoforms of I3K were measured.

[2] = molecular target: mTOR/GbL/Raptor (mTORC1) (Homo sapiens, UniProt P42345); assay: mTOR/GbL/Raptor (mTORC1) ELISA Assay; assay type: biochemical; conditions: 4E-BP1 phosphorylation, 0.2 nM mTORC1, 10 μM ATP; last bin: >= 2,000 nM or not active under the conditions the assay was run; read-out: IC50 in this assay (mTORC1)
Procedure: The measurement of mTORC1 enzyme activity was performed in an ELISA assay format following the phosphorylation of 4E-BP1 protein. All experiments were performed in the 384-well format. Generally, 0.5 μL DMSO containing varying concentrations of the test Compound was mixed with 15 μL enzyme solution. Kinase reactions were initiated with the addition of 15 μL of substrates-containing solution. The assay conditions were as follows; 0.2 nM mTORC1, 10 μM ATP and 50 nM NHis-tagged 4E-BPI in 20 mM Hepes, pH 7.2, 1 mM DTT, 50 mM NaCl, 10 mM MnCl2, 0.02 mg/mL BSA, 0.01% CHAPS, 50 mM β-glycerophosphate. Following an incubation of 120 minutes at ambient temperature, 20 μL of the reaction volume was transferred to a Ni-Chelate-coated 384-well plate. The binding step of the 4E-BP1 protein proceeded for 60 minutes, followed by washing 4 times each with 50 μL of Tris-buffered saline solution (TBS). Anti-phospho-4E-BP1 rabbit-IgG (20 μL, 1:5000) in 5% BSA-TBST (0.2% Tween-20 in TBS) was added and further incubated for 60 minutes. Incubation with a secondary HRP-tagged anti-IgG was similarly performed after washing off the primary antibody (4 washes of 50 μL). Following the final wash step with TBST, 20 μL of SuperSignal ELISA Femto (Pierce Biotechnology) was added and the luminescence measured using an EnVision plate reader.

[3] = system: pAKT (T308) in MCF-7 cells (PI3Kα E545K); assay: pAKT (T308) ELISA Assay; assay type: cell-based; conditions: Homo sapiens, MCF7; IGF1 stimulation; read-out: pAKT (T308) IC50 MCF-7 PI3Kα E545K IGF1
Procedure: MCF-7 cells (ATCC) cells were seeded at 24000 cells per well in 96-well plates (Corning, 3904) in DMEM (Cellgro) containing 10% FBS (Cellgro), 1% NEAA (Cellgro) and 1% penicillin-streptomycin (Cellgro). Cells were incubated at 37° C., 5% CO2 for 48 h, and the growth medium was replaced with serum-free DMEM or in medium containing 0.4% BSA. Serial dilutions of the test Compound in 0.3% DMSO (vehicle) were added to the cells and incubated for 3 h. At the end of the incubation period, cells were stimulated for 10 minutes by the addition of L-IGF (Sigma, I-1271) at a final concentration of 100 ng/ml. Afterwards, media was discarded from cell plates and 110 μl/well of cold lysis buffer (see table below) were added. Cell plates were incubated on ice and then put on shaker in 4° C. cold room for 1 h. Two capture plates (Thermo Scientific, Reacti-bind plate, 15042) were prepared for each cell plate by pre-coating with capture Akt antibody from the two sandwich ELISA antibody pairs used (Cell Signaling Technology 7142 and 7144). The Akt capture antibodies were diluted 1:100 in PBS and 100 μl of diluted capture antibody was added per well. Capture plates were incubated at 4 C overnight. Prior to use, capture plates were washed 3 times in TBS containing 0.1% Tween20 (Bio-Rad, 170-6351) (TBST) and blocked in blocking buffer (Thermo Scientific, Starting Block T20, 37543) for 1-2 h at room temperature. After 1 h of cell lysis, 85 μl of cell lysate/well was transferred to the capture plate for detection of pAkt(T308). 15 μl of cell lysate was transferred from same well to the second capture plate for detection of total Akt1. After incubation overnight at 4° C., plates were washed 3 times with 200 μL TBST. Primary antibodies, diluted 1:100 in blocking buffer, were added to the corresponding capture plates for pAkt(T308) (Cell Signaling Technology, 7144) and total Akt1 (Cell Signaling Technology, 7142) detection and incubated at room temperature for 1 h. Plates were washed 3 times with 200 μL of TBST. Goat anti-mouse secondary antibody (Cell Signaling Technology, 7076) conjugated to HRP was diluted 1:1000 in blocking buffer and 100 μl were added to each well and incubated for 30 minutes at room temperature. Plates were then washed 3 times with 200 μL of TBST. 100 μL of SuperSignal ELISA Femto stable peroxidase solution (Thermo Scientific, 37075) was added to each well. After 1 minute incubation, chemiluminescence was read on a Wallac Victor2 1420 multilabel counter. IC50 values were determined based on the ratio of pAkt(T308) to total Akt1 signal for Compound treated wells, normalized to the DMSO-treated control wells.
In another embodiment, the pAKT ELISA Assay was performed by seeding cells onto 96-well plates (Corning, 3904) in their respective growth media at the densities listed in Table 5. Cells were incubated at 37° C., 5% CO2 for 48 h (except MDA-MB-453 cells which were cultured in the absence of CO2). Compounds were serially diluted in DMSO and subsequently diluted in serum-free DMEM. Test compounds were added to cells in serum-free DMEM at a final concentration of 0.3% DMSO and incubated for 3 h. Cells were lysed with 130 μL of ice-cold RIPA lysis buffer (50 mM Tris-HCl, pH 7.5; 0.5% sodium deoxycholic acid; 1% Triton X-100; 0.1% SDS; 150 mM NaCl) with protease and phosphatase inhibitors (1 mM EDTA, 1 mM NaF, 20 mM β-glycerophosphate, 1 mM Na-orthovanadate, Complete-Mini EDTA-free, Roche, 11836170001, and Phosphatase Inhibitor Cocktail I, Sigma, P2850), directly in 96-well plates. Cells were lysed on ice for 60-120 min at 4° C. The supernatants were added directly to capture ELISA plates previously pre-coated with rabbit anti-AKT capture antibody. ELISA assays for pAKT(T308) and total AKT were performed with the pAKT(T308) ELISA kit (Cell Signaling Technology, 7144) and AKT1 ELISA kit (Cell Signaling Technology, 7142). For the pAKT(T308) ELISA, 85 μL of cell lysate was added to each well. […]

[4] = system: PTEN-negative tumors; conditions: specific inhibition of PI3Kβ; cited from earlier work
[5] = system: PTEN-negative tumors; conditions: specific inhibition of PI3Kβ; cited from earlier work; remark: listed apart in the source

PI3Kα, sequence (P42336 whole entry): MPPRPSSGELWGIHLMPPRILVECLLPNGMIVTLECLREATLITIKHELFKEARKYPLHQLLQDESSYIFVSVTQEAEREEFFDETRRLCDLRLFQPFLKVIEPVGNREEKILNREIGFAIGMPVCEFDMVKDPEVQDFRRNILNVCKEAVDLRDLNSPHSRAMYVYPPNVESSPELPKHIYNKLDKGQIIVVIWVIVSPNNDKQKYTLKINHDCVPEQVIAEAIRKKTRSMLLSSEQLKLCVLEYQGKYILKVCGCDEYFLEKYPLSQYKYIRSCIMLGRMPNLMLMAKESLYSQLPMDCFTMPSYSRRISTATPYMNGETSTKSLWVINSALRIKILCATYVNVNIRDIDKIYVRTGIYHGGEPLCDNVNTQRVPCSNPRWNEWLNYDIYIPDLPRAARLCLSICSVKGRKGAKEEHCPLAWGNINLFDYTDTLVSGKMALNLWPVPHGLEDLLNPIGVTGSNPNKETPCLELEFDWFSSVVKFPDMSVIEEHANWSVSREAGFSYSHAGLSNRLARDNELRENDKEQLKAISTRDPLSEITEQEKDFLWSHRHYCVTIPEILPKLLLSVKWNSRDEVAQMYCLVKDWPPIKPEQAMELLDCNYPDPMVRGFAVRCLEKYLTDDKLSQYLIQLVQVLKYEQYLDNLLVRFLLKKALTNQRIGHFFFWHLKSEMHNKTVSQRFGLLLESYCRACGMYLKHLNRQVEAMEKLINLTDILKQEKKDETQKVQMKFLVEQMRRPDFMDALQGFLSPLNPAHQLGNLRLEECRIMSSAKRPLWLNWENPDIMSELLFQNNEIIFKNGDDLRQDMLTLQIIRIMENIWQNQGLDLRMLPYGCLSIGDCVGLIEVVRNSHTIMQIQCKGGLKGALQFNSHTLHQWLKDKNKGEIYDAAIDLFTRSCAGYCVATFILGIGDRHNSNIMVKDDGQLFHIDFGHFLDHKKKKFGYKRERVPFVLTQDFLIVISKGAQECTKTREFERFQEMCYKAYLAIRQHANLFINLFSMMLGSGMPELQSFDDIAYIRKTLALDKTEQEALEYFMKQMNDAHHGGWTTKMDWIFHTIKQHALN
PI3Kα, sequence (P27986 whole entry partner): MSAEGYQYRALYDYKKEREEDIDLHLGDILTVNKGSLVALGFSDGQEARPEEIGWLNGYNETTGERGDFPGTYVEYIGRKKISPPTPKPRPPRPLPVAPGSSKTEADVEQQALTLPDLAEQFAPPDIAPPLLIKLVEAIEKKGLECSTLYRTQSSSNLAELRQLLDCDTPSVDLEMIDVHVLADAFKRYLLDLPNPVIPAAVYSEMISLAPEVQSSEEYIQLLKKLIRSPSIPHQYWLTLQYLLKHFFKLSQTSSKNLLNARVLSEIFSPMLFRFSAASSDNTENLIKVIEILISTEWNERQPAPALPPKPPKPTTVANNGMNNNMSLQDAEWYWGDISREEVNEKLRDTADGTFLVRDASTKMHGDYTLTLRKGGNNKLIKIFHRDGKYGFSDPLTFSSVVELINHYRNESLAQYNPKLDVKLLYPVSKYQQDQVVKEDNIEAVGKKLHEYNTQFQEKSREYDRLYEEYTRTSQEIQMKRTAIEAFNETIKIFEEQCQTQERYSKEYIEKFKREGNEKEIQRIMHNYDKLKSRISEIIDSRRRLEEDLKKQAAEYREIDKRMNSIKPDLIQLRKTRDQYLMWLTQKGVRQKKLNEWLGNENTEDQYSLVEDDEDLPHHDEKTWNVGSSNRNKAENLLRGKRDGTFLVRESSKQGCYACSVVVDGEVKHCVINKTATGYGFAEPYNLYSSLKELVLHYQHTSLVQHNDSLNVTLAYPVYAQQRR

Compound	IC50 [1]	IC50 [2]	other results
Cc1nc2ccc(-c3ccc4c(c3)CN(c3cc(-c5ccccc5)nc(-c5ccccc5)n3)CCO4)cc2[nH]1 [Compound 7]	≥ 2000 nM	–	–
Cn1cnc2cc(-c3ccc4c(c3)CN(c3ccnc5ccccc35)CCO4)ccc21 [Compound 130, 7-(1-methyl-1H-benzimidazol-5-yl)-4-quinolin-4-yl-2,3,4,5-tetrahydro-1,4-benzoxazepine]	1000 to 2000 nM	250 to 1000 nM	–
Cc1nc2cc(-c3ccc4c(c3)CN(c3nc([C@@H]5CCCN5C(=O)OCc5ccccc5)nc5c3CC(C)(C)CC5)CCO4)cnc2[nH]1 [Compound 645, phenylmethyl (2S)-2-{6,6-dimethyl-4-[7-(2-methyl-3H-imidazo[4,5-b]pyridin-6-yl)-2,3-dihydro-1,4-benzoxazepin-4(5H)-yl]-5,6,7,8-tetrahydroquinazolin-2-yl}pyrrolidine-1-carboxylate]	1000 to 2000 nM	–	–
CC(C)(O)CCS(=O)(=O)c1cc(-c2ccc3c(c2)CN(c2ncnc4c2CC(C)(C)CC4)CCO3)cnc1N [Compound 459, 4-({2-amino-5-[4-(6,6-dimethyl-5,6,7,8-tetrahydroquinazolin-4-yl)-2,3,4,5-tetrahydro-1,4-benzoxazepin-7-yl]pyridin-3-yl}sulfonyl)-2-methylbutan-2-ol]	–	50 to 250 nM	–
Cc1nc2ccc(-c3ccc4c(c3)CN(c3ncnc5ccc(Cl)cc35)CCO4)cc2[nH]1 [Compound 13, 4-(6-chloroquinazolin-4-yl)-7-(2-methyl-1H-benzimidazol-6-yl)-2,3,4,5-tetrahydro-1,4-benzoxazepine]	–	≤ 10 nM	–
CCN(CC)c1nc(N2CCOc3ccc(-c4ccc5nc(C)[nH]c5c4)cc3C2)c2ccccc2n1 [Compound 6]	≥ 2000 nM	–	–
Cc1cc(C(C)Nc2ccccc2)c2nc(N3CCOCC3)cc(=O)n2c1 (stereo not shown) [TGX-221, 7-methyl-2-(4-morpholinyl)-9-[1-(phenylamino)ethyl]-4H-pyrido[1,2-a]pyrimidin-4-one]	–	–	IC50 [3]: 1760 nM; basal AKT phosphorylation [4]: blocks; cell growth [5]: blocks
Cc1nc2ccc(-c3ccc4c(c3)CN(c3ccncn3)CCO4)cc2[nH]1 [Compound 2, 7-(2-methyl-1H-benzimidazol-6-yl)-4-pyrimidin-4-yl-2,3,4,5-tetrahydro-1,4-benzoxazepine]	–	≥ 2000 nM	–
Cc1nc2cc(-c3ccc4c(c3)CN(c3nc(C5CCCN5)nc5c3CC(C)(C)CC5)CCO4)cnc2[nH]1 (stereo not shown) [Compound 474, 4-(6,6-dimethyl-2-pyrrolidin-2-yl-5,6,7,8-tetrahydroquinazolin-4-yl)-7-(2-methyl-3H-imidazo[4,5-b]pyridin-6-yl)-2,3,4,5-tetrahydro-1,4-benzoxazepine]	–	≤ 10 nM	–
CCNc1nc2ccc(-c3ccc4c(c3)CN(c3cc(C)nc5cc(F)ccc35)CCO4)cc2[nH]1 [Compound 641, N-ethyl-6-[4-(7-fluoro-2-methylquinolin-4-yl)-2,3,4,5-tetrahydro-1,4-benzoxazepin-7-yl]-1H-benzimidazol-2-amine]	–	50 to 250 nM	–
